Measured values reported in patent publication US6416965B2, “Screening methods for presqualene disphosphate analogs” (Brigham and Women's Hospital, priority 1997, dated 2002).

Key:
PMN = assay: 32PO4 incorporation into non-saponifiable lipids of PMN labeled with γ-32PO4-ATP; assay type: cell-based, human; settings: GM-CSF 25 ng/ml, 60 min, 37° C.; relative to cells without agonist
Description: To determine FMLP (10−^7 M)-induced changes in compound VI and VIII mass (inset), radioactive compounds were eluted and inorganic phosphorus levels were measured. In addition, PMN labeled with γ-^32PO4-ATP were incubated in the presence or absence of GM-CSF (25 ng/ml, 60 min, 37° C.)(b) with ^32P content quantitated as above. Values represent the mean±SEM for duplicate determinations from at least two separate PMN. The percent increase after exposure to GM-CSF is relative to parallel incubations with cells in the absence of agonist. **p<0.0005 and * p<0.03 by Student's paired t-test.

human neutrophils = assay: FMLP-stimulated 1,4,5-inositol triphosphate (IP3) formation as surrogate for phospholipase C activity; assay type: cell-based; settings: nM-μM amounts
Description: (§1) Neutrophils (10^7/500 μl) were electroporated (1.65 kV/cm, 250 μF, Ω∞, Invitrogen Electroporator VI) at 0° C. in the presence of 10−^9-10−^6 M compound VI, VIII, FDP, FMP, squalene or vehicle (ethanol 0.2%). After electroporation, cells, in cytochrome c (0.7 mg/ml), were exposed (10 minutes, 37° C.) to either cytochalasin b (5 μg/mL) and FMLP (10^−7 M)(a) or PMA ((10^−7 M)(b) and supernatants monitored at […]. Electroporation gave a 49.9% reduction in FMLP-stimulated NADPH oxidase compared to naive cells. Values (FIGS. 4a and 4b) represent the mean±SEM for n≧3, d≧6. For adhesion (FIGS. 4c and 4d), changes in light transmittance were monitored (as in Fiore, S., Nicolaou, K. C., Caulfield, T., Kataoka, H. & Serhan, C. N. Biochem. J. 266, 25-31 (1990), the teachings of which are incorporated herein by reference) after addition of compounds VI, VIII (1.6 μM) or vehicle (0.5 min) and FMLP (0.5-5 μM) (2.5 min). Cell viability remained>99%. Values represent the mean±SEM for n=3, d=9. 1,4,5-inositol-triphosphate levels were determined (Amersham) in fresh PMN (10^7 cells) exposed (5 minutes, 37° C.) to compound VI, compound VIII (1 μM) or vehicle and stimulated with FMLP (10^−7M, 37° C.) (as in FIG. 4e). % Inhibition after 10 second exposure to FMLP is reported as mean±SEM for n=4, d≧8. *p <0.05 in Student's paired t-test compared with control, while “NS” indicates no significant change compared to incubations in the presence of vehicle (ethanol 0.2%) alone. Stereochemistry of PSDP and PSMP (FIG. 4f) were assigned by routine methods (Poulter, C. D. and Rilling, H. C. Acc. Chem. Res. 11, 307-313, (1978), the teachings of which are hereby incorporated by reference).
In addition to PLD, phospholipase C plays a critical role in intracellular signaling via the hydrolysis of inositol lipids to diacyl glyceride (DAG) and inositol trisphosphate (IP3) to effect a cascade of cellular events in response to pro-inflammatory stimuli. DAG activates protein kinases and is converted, in part, to phosphatidic acid by DAG kinase. Therefore, PLC together with DAG kinase provides a second major source of phosphatidic acid in human neutrophils (Agwu, DE, et al., Journal of Clinical Investigation 1991; 88:531). […] To this end, the impact of PSDP on fMLP-stimulated IP3 formation as a surrogate for phospholipase C activity was examined (FIG. 4e).
Amersham's D-myo-inositol 1,4,5-trisphosphate (IP3) [^3H] assay was used for this procedure (Amersham code TRK 1000, including product assay, the contents of which are incorporated herein by reference). The assay is based on procedures developed by Takata S. et al. J. Clin. Invest. 93:499 (1994) and Dillon S. B. et al. J. Biol. Chem. 262:11546 (1987), the contents of which are incorporated herein by reference in their entirety. [drawing 24] […]

[1] = test system: electroporated neutrophils; assay: Superoxide anion generation (NADPH oxidase activity) by electroporated neutrophils; assay type: cell-based, human
Source text: To test the impact of compounds VI and VIII on neutrophil responses, the isolated lipids were introduced into neutrophils by electroporation prior to determining NADPH oxidase activity. […] Prenyl cysteine analogues can disrupt G-protein interaction with activated FMLP receptors (Scheer, A. & Gierschik, P. Biochemistry. 34,4952-4961 (1995), the teachings of which are incorporated herein by reference); therefore to determine compound VI's level of action, neutrophil superoxide anion generation was examined in the presence of phorbol 12-myristate 13-acetate (PMA), a potent trigger for O2- production which bypasses cell surface receptors to stimulate protein kinase C and subsequent NADPH assembly (see for example, Baggiolini, M., Boulay, F., Badwey, J. A. & Curnutte, J. T. FASEB J. 7, […] (1993); FIG. 3c).
After electroporation, cells in cytochrome c (0.7 mg/ml) were exposed (10 min, 37° C.) to PMA (10^−7 M), FMLP (10^−7 M) plus cytochalasin b (15 μg/ml), compound VI (1 μM) or compound VIII (1 μM) and supernatants monitored at 550 nm. Values represent the mean±SEM for n≧4.
as §1

neutrophils = assay: Neutrophil homotypic adhesion (aggregation, light transmittance); assay type: cell-based, human
Description: as §1

neutrophil sonicates = assay: Superoxide anion generation by neutrophil sonicates (post-nuclear supernatants, cytochrome c reduction); assay type: biochemical, human; settings: arachidonic acid C20:4 75 μM, phosphatitic acid C10:0 100 μM
Description: Neutrophil lipids were saponified (10% KOH in methanol, 37° C., 30 min), extracted (Van Dessel, G. A. F., Lagrou, A. R. Hilderson, H. J. J. & Dierick, W. S. H. In: CRC Handbook of Chromatography (eds Mukherjee, K. D., Weber, N. & Sherma, J.) 321-337 (CRC Press, Boca Raton, 1993)) and separated by CC4 silica (1 gm/10^8 PMN) column chromatography as in FIG. 1f. […] After 2 min (37° C.) in a thermal-jacketed cuvette, β-NAPH (200 μM) was added to initiate reactions and absorbance (550 nm) was monitored at 15 second intervals. […]
To determine O2- production (FIGS. 1a-c), post-nuclear supernatants from neutrophils after sonication (0.1-0.5 mg protein/ml) (as generally described in Bromberg, Y. & Pick, E. Cell. Immunol. 88, 213-221 (1984), the teachings of which are incorporated herein by reference), 100 μM phosphatitic acid (C10:0, Avanti Polar Lipids, Inc.) and lipid extracts (0.1% ethanol) were added to cytochrome c (60 μM), sucrose (170 mM), EGTA (1 mM), FAD (10 μM), NaN3 (2 mM) and either superoxide dismutase (30 ug/ml) or H20 at 0° C. […] After 2 min (37° C.) in a thermal-jacketed cuvette, B-NADPH (200 μM) was added to initiate reactions and absorbance (550 nm) was monitored at 15 second intervals or following termination (10 minutes, 0° C.). […]

GM-CSF: granulocyte/monocyte-colony stimulating factor, cytokine
increase of 32PO4 incorporation into compound VI (PMN): 45.0% | increase of 32PO4 incorporation into compound VIII (PMN): 84.1%

CC(C)=CCC/C(C)=C/CC/C(C)=C/C1C(COP(=O)(O)O)C1(C)CC/C=C(\C)CCC=C(C)C (stereo in doubt) [Compound VIII, presqualene monophosphate]
inhibition of 1,4,5-inositol-triphosphate formation (human neutrophils): not | influence on PMA-stimulated O2- production ([1]; PMA 10^-7 M, electroporated neutrophils): not significantly influenced | inhibition of neutrophil superoxide anion generation ([1]; nM-μM amounts): not | FMLP-triggered O2- production in the presence of the compound ([1]; nM-μM quantities, electroporated neutrophils): unaltered | stimulation of O2- production by the compound alone ([1]; no agonist, 1 μM (FIG. 3c)): neither compound VI nor VIII alone stimulated | stimulation of adhesion by the compound alone (neutrophils; no agonist): neither compound VI nor VIII alone stimulated | inhibition of FMLP-stimulated homotypic adhesion (neutrophils; μM levels): not

CCCCC/C=C\C/C=C\C/C=C\C/C=C\CCCC(=O)O [arachidonic acid]
rate of superoxide anion generation (O2- production) (neutrophil sonicates): 1.38 nmoles/mg protein/min

CCCCCCCCCC(=O)OC[C@H](COP(=O)(O)O)OC(=O)CCCCCCCCC [phosphatitic acid]
rate of superoxide anion generation (O2- production) (neutrophil sonicates): 1.34 nmoles/mg protein/min
